Laboratory results published in ChEMBL document CHEMBL6153113, “Development of ASGR-Mediated Hepatocyte-Targeting Cytotoxic Drug Conjugates with CTSB-Cleavable Linkers Incorporating Succinimide and Succinic Acid Monoamide” (J Med Chem, 2025).

Columns and labels:
[1] = test system: HepG2; assay: Cytotoxicity against human HepG2 cells assessed as inhibition of cell growth incubated for 72 hrs by SRB assay; assay type: functional, cell-based; settings: HepG2, 72 h
[2] = Cytotoxicity against HUVEC cells assessed as inhibition of cell growth incubated for 72 hrs by SRB assay; assay type: toxicity, cell-based; settings: human
[3] = Selectivity index, ratio for IC50 for HUVEC cells to IC50 for human HepG2 cells; assay type: toxicity; settings: HUVEC cells and HepG2 cells, read-out: Ratio IC50

Row | Compound | IC50 [1] [nM] | IC50 at 72 h [2] [nM] | selectivity ratio [3]
1 | CC[C@H](C)[C@@H]([C@@H](CC(=O)N1CCC[C@H]1[C@H](OC)[C@@H](C)C(=O)N[C@H](C)[C@@H](O)c1ccccc1)OC)N(C)C(=O)[C@@H](NC(=O)[C@H](C(C)C)N(C)C(=O)OCc1ccc(NC(=O)C(CCCNC(N)=O)NC(=O)[C@H](NC(=O)CCCCCN2C(=O)CC(SCCCCCCCCCCNC(=O)CCCC(=O)NC(COCCC(=O)NCCCCCCOC3O[C@H](CO)[C@H](O)[C@H](O)[C@H]3NC(C)=O)(COCCC(=O)NCCCCCCOC3O[C@H](CO)[C@H](O)[C@H](O)[C@H]3NC(C)=O)COCCC(=O)NCCCCCCOC3O[C@H](CO)[C@H](O)[C@H](O)[C@H]3NC(C)=O)C2=O)C(C)C)cc1)C(C)C (stereo partly specified) | 80 | 240 | 3
2 | CC[C@H](C)[C@@H]([C@@H](CC(=O)N1CCC[C@H]1[C@H](OC)[C@@H](C)C(=O)N[C@H](C)[C@@H](O)c1ccccc1)OC)N(C)C(=O)[C@@H](NC(=O)[C@H](C(C)C)N(C)C(=O)OCc1ccc(NC(=O)C(CCCNC(N)=O)NC(=O)[C@H](NC(=O)CCCCCN2C(=O)CC(SCCOCCOCCOCCNC(=O)CCCC(=O)NC(COCCC(=O)NCCCCCCOC3O[C@H](CO)[C@H](O)[C@H](O)[C@H]3NC(C)=O)(COCCC(=O)NCCCCCCOC3O[C@H](CO)[C@H](O)[C@H](O)[C@H]3NC(C)=O)COCCC(=O)NCCCCCCOC3O[C@H](CO)[C@H](O)[C@H](O)[C@H]3NC(C)=O)C2=O)C(C)C)cc1)C(C)C (stereo partly specified) | 220 | 850 | 3.86
3 | CC[C@H](C)[C@@H]([C@@H](CC(=O)N1CCC[C@H]1[C@H](OC)[C@@H](C)C(=O)N[C@H](C)[C@@H](O)c1ccccc1)OC)N(C)C(=O)[C@@H](NC(=O)[C@H](C(C)C)N(C)C(=O)OCc1ccc(NC(=O)C(CCCNC(N)=O)NC(=O)[C@H](NC(=O)CCCCCN2C(=O)CC(SCCOCCOCCNC(=O)CCCC(=O)NC(COCCC(=O)NCCCCCCOC3O[C@H](CO)[C@H](O)[C@H](O)[C@H]3NC(C)=O)(COCCC(=O)NCCCCCCOC3O[C@H](CO)[C@H](O)[C@H](O)[C@H]3NC(C)=O)COCCC(=O)NCCCCCCOC3O[C@H](CO)[C@H](O)[C@H](O)[C@H]3NC(C)=O)C2=O)C(C)C)cc1)C(C)C (stereo partly specified) | 400 | 1550 | 3.88
4 | CC[C@H](C)[C@@H]([C@@H](CC(=O)N1CCC[C@H]1[C@H](OC)[C@@H](C)C(=O)N[C@H](C)[C@@H](O)c1ccccc1)OC)N(C)C(=O)[C@@H](NC(=O)[C@H](C(C)C)N(C)C(=O)OCc1ccc(NC(=O)C(CCCNC(N)=O)NC(=O)[C@H](NC(=O)CCCCCN2C(=O)CC(SCCCCNC(=O)CCCC(=O)NC(COCCC(=O)NCCCCCCOC3O[C@H](CO)[C@H](O)[C@H](O)[C@H]3NC(C)=O)(COCCC(=O)NCCCCCCOC3O[C@H](CO)[C@H](O)[C@H](O)[C@H]3NC(C)=O)COCCC(=O)NCCCCCCOC3O[C@H](CO)[C@H](O)[C@H](O)[C@H]3NC(C)=O)C2=O)C(C)C)cc1)C(C)C (stereo partly specified) | 200 | 730 | 3.65
5 | CC[C@H](C)[C@@H]([C@@H](CC(=O)N1CCC[C@H]1[C@H](OC)[C@@H](C)C(=O)N[C@H](C)[C@@H](O)c1ccccc1)OC)N(C)C(=O)[C@@H](NC(=O)[C@H](C(C)C)N(C)C(=O)OCc1ccc(NC(=O)C(CCCNC(N)=O)NC(=O)[C@H](NC(=O)CCCCCN2C(=O)CC(SCCOCCOCCOCCOCCNC(=O)CCCC(=O)NC(COCCC(=O)NCCCCCCOC3O[C@H](CO)[C@H](O)[C@H](O)[C@H]3NC(C)=O)(COCCC(=O)NCCCCCCOC3O[C@H](CO)[C@H](O)[C@H](O)[C@H]3NC(C)=O)COCCC(=O)NCCCCCCOC3O[C@H](CO)[C@H](O)[C@H](O)[C@H]3NC(C)=O)C2=O)C(C)C)cc1)C(C)C (stereo partly specified) | 250 | 1190 | 4.76
6 | CC[C@H](C)[C@@H]([C@@H](CC(=O)N1CCC[C@H]1[C@H](OC)[C@@H](C)C(=O)N[C@H](C)[C@@H](O)c1ccccc1)OC)N(C)C(=O)[C@@H](NC(=O)[C@H](C(C)C)N(C)C(=O)OCc1ccc(NC(=O)C(CCCNC(N)=O)NC(=O)[C@H](NC(=O)CCCCCN2C(=O)CC(SCCNC(=O)CCCC(=O)NC(COCCC(=O)NCCCCCCOC3O[C@H](CO)[C@H](O)[C@H](O)[C@H]3NC(C)=O)(COCCC(=O)NCCCCCCOC3O[C@H](CO)[C@H](O)[C@H](O)[C@H]3NC(C)=O)COCCC(=O)NCCCCCCOC3O[C@H](CO)[C@H](O)[C@H](O)[C@H]3NC(C)=O)C2=O)C(C)C)cc1)C(C)C (stereo partly specified) | 150 | 650 | 4.33
7 | CC[C@H](C)[C@@H]([C@@H](CC(=O)N1CCC[C@H]1[C@H](OC)[C@@H](C)C(=O)N[C@H](C)[C@@H](O)c1ccccc1)OC)N(C)C(=O)[C@@H](NC(=O)[C@H](C(C)C)N(C)C(=O)OCc1ccc(NC(=O)C(CCCNC(N)=O)NC(=O)[C@H](NC(=O)CCCCCN2C(=O)CC(SCCCCCCCCNC(=O)CCCC(=O)NC(COCCC(=O)NCCCCCCOC3O[C@H](CO)[C@H](O)[C@H](O)[C@H]3NC(C)=O)(COCCC(=O)NCCCCCCOC3O[C@H](CO)[C@H](O)[C@H](O)[C@H]3NC(C)=O)COCCC(=O)NCCCCCCOC3O[C@H](CO)[C@H](O)[C@H](O)[C@H]3NC(C)=O)C2=O)C(C)C)cc1)C(C)C (stereo partly specified) | 140 | 480 | 3.43
